PubChem BioAssay (NCI)
Values joined by “and” are separate entries in the source; they are usually repeats but may differ in a detail not shown here. Equal entries are not always repeated.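 Test compounds were applied to cells in 96-well plates for 48 hours at 5 doses. GI50: concentration for 50% inhibition of growth. Definition used: TGI = concentration required for complete inhibition of growth.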

Experiments:
Assay in all cases: growth of human tumour cells (NCI), 48 h; in the data active means GI50 below about 0.43 µM; inactive means the rest
[1] = test system: 786-0 renal
[2] = test system: A498 renal
[3] = test system: A549 NSCLC
[4] = test system: ACHN renal
[5] = test system: BT-549 breast
[6] = test system: CCRF-CEM leukemia
[7] = test system: COLO 205 colon
[8] = test system: DU-145 prostate
[9] = test system: EKVX NSCLC
[10] = test system: HCC-2998 colon
[11] = test system: HCT-116 colon
[12] = test system: HCT-15 colon
[13] = test system: HL-60(TB) leukemia
[14] = test system: HOP-62 NSCLC
[15] = test system: HOP-92 NSCLC
[16] = test system: HS 578T breast
[17] = test system: HT29 colon
[18] = test system: IGROV1 ovarian
[19] = test system: K-562 leukemia
[20] = test system: KM12 colon
[21] = test system: LOX IMVI melanoma
[22] = test system: M14 melanoma
[23] = test system: MALME-3M melanoma
[24] = test system: MCF7 breast
[25] = test system: MDA-MB-231 breast
[26] = test system: MDA-MB-435
[27] = test system: MOLT-4 leukemia
[28] = test system: NCI-H226 lung
[29] = test system: NCI-H23 lung
[30] = test system: NCI-H460 lung
[31] = test system: NCI-H522 lung
[32] = test system: NCI/ADR-RES ovarian
[33] = test system: OVCAR-3 ovarian
[34] = test system: OVCAR-4 ovarian
[35] = test system: OVCAR-5 ovarian
[36] = test system: OVCAR-8 ovarian
[37] = test system: PC-3 prostate
[38] = test system: RPMI-8226 leukemia
[39] = test system: RXF 393 renal
[40] = test system: SF-268 CNS
[41] = test system: SF-295 CNS
[42] = test system: SF-539 CNS
[43] = test system: SK-MEL-2 melanoma
[44] = test system: SK-MEL-28 melanoma
[45] = test system: SK-MEL-5 melanoma
[46] = test system: SK-OV-3 ovarian
[47] = test system: SN12C renal
[48] = test system: SNB-19 CNS
[49] = test system: SR leukemia
[50] = test system: SW-620 colon
[51] = test system: T-47D breast
[52] = test system: TK-10 renal
[53] = test system: U251 CNS
[54] = test system: UACC-257 melanoma
[55] = test system: UACC-62 melanoma
[56] = test system: UO-31 renal

COC(=O)N[C@H]1C=C[C@@H]2/C=C(C)/C=C/[C@@H](C)[C@H]([C@H](C)[C@H](O)[C@@H](C)NC(C)=O)OC(=O)/C=C/C=C(C)\C=C\[C@]2(C)C1
0.172 µM and 0.635 µM: GI50 [33]
0.0291 µM and 0.015 µM: TGI [45]
8.92 µM: TGI [55]
> 45.3 µM: TGI [1] | TGI [3] | TGI [4] | TGI [6] | TGI [8] | TGI [9] | TGI [10] | TGI [11] | TGI [12] | TGI [14] | TGI [16] | TGI [17] | TGI [18] | TGI [19] | TGI [20] | TGI [24] | TGI [27] | TGI [29] | TGI [30] | TGI [32] | TGI [34] | TGI [35] | TGI [36] | TGI [37] | TGI [40] | TGI [47] | TGI [48] | TGI [51] | TGI [52] | TGI [54]
0.0358 µM and < 0.00453 µM: TGI [22]
16.2 µM: TGI [39] | TGI [50]
19.6 µM: TGI [13]
0.044 µM and 0.0268 µM: TGI [15]
28.7 µM: TGI [56]
9.15 µM: TGI [28]
inactive: GI50 [6] 2.58 µM | GI50 [27] 8.51 µM | GI50 [34] 5.92 µM | GI50 [35] 8.01 µM and 6.55 µM | GI50 [43] 7.19 µM | GI50 [52] 5.12 µM and 5.68 µM
24.7 µM: TGI [53]
13.4 µM: TGI [49]
6.55 µM: TGI [42]
33.1 µM: TGI [43]
19.2 µM: TGI [31]
13.3 µM: TGI [44]
10.6 µM: TGI [26]
16.5 µM: TGI [33]
10.8 µM: TGI [23]
21 µM: TGI [38]
0.011 µM and 0.00475 µM: TGI [21]
1.19 µM and 0.261 µM: GI50 [23]
active: GI50 [1] 0.0165 µM and 0.00746 µM | GI50 [2] 0.0132 µM and 0.0135 µM | GI50 [3] 0.0312 µM and 0.00453 µM | GI50 [4] 0.00453 µM | GI50 [5] 0.0187 µM and 0.0126 µM | GI50 [7] 0.014 µM and 0.0113 µM | GI50 [11] 0.00371 µM and 0.00453 µM | GI50 [12] 0.00893 µM and 0.00736 µM | GI50 [13] 0.00722 µM and 0.00548 µM | GI50 [14] 0.0705 µM and 0.0278 µM | GI50 [15] 0.00211 µM and 0.00453 µM | GI50 [16] 0.0293 µM and 0.0165 µM | GI50 [17] 0.00618 µM and 0.00453 µM | GI50 [18] 0.0248 µM and 0.00453 µM | GI50 [19] 0.0146 µM | GI50 [20] 0.00959 µM and 0.0135 µM | GI50 [21] 0.00294 µM and 0.00453 µM | GI50 [22] 0.00369 µM and < 0.00453 µM | GI50 [24] 0.00826 µM and 0.00453 µM | GI50 [25] 0.00228 µM and 0.00453 µM | GI50 [26] 0.00374 µM and 0.00453 µM | GI50 [28] 0.0283 µM and 0.00504 µM | GI50 [29] 0.0943 µM and 0.0964 µM | GI50 [30] 0.0135 µM and 0.00697 µM | GI50 [31] 0.0613 µM and 0.0388 µM | GI50 [32] 0.0282 µM and 0.0161 µM | GI50 [36] 0.0179 µM and 0.00745 µM | GI50 [37] 0.00785 µM and 0.00453 µM | GI50 [38] 0.0173 µM and 0.00459 µM | GI50 [39] 0.00449 µM and 0.00453 µM | GI50 [41] 0.00371 µM and 0.00453 µM | GI50 [42] 0.00413 µM and 0.00453 µM | GI50 [44] 0.0121 µM and 0.0102 µM | GI50 [45] 0.00365 µM and 0.00453 µM | GI50 [46] 0.0067 µM | GI50 [47] 0.00813 µM and 0.00518 µM | GI50 [48] 0.118 µM and 0.0164 µM | GI50 [49] 0.007 µM and 0.00453 µM | GI50 [50] 0.00892 µM and 0.00453 µM | GI50 [51] 0.00696 µM and 0.00453 µM | GI50 [53] 0.00472 µM and 0.00453 µM | GI50 [54] 0.029 µM and 0.00453 µM | GI50 [55] 0.0189 µM and 0.0196 µM | GI50 [56] 0.00747 µM and 0.00453 µM
42.1 µM: TGI [5]
7.07 µM: TGI [7]
